Assay results as given in ChEMBL document CHEMBL1687884, “Mirabamides E-H, HIV-inhibitory depsipeptides from the sponge Stelletta clavosa” (J Nat Prod, 2011).
pIC50: −log10 of the molar value. Numbered stars: 1 amine (or outer) side, 2 acyl side, 3 side chain; on linkers, the order of the positions; unused ones are H or OH. Bridge positions count the residues as written; N and C are the ends. Square brackets hold non-standard residues; d marks the D form. Peptide text beside a SMILES is read from it. * marks the point of attachment. dLeu(3R-OH) = CC(C)[C@@H](O[*:3])[C@@H](N[*:1])C(=O)[*:2]; Gln(3S,4R-Me2) = C[C@H]([C@H](N)C(=O)O)[C@@H](C)C(N)=O; dTyr(βR-OMe) = CO[C@H](c1ccc(O)cc1)[C@@H](N)C(=O)O; Pip(4S-Cl) = O=C(O)[C@@H]1C[C@@H](Cl)CCN1; X1 = CCC(C)/C=C(C)/C=C\C(O)C(C)(O)C(=O)*; Abu(3R-NH2) = C[C@@H](N)[C@H](N)C(=O)O; NMeT = CN[C@H](C(=O)O)[C@@H](C)O

Tested on: Human immunodeficiency virus 1
Assay: Inhibition of HIV1 isolate YU2 infected in human TZM-bl cells expressing CD4 and CCR5 assessed as assessed inhibition of viral entry after 24 hrs by luciferase reporter assay
Format: functional, organism-based
Conditions: Human immunodeficiency virus 1, isolate YU2, TZM-bl

Q: `CCC(C)/C=C(C)/C=C\C(O)C(C)(O)C(=O)NCC(=O)N[C@H](C(=O)N[C@H](C(=O)N[C@H](C(=O)N[C@H]1C(=O)N[C@H](COC)C(=O)NCC(=O)N[C@@H](C)C(=O)N(C)[C@@H]([C@@H](C)O)C(=O)N[C@H]([C@H](OC)c2ccc(O)cc2)C(=O)N2CC[C@H](Cl)C[C@H]2C(=O)O[C@@H]1C(C)C)[C@@H](C)[C@@H](C)C(N)=O)[C@@H](C)N)[C@@H](C)O` (stereo partly drawn) [MIRABAMIDE C] (X1-GT[Abu(3R-NH2)][Gln(3S,4R-Me2)][dLeu(3R-OH)][dS](Me)GA[NMeT][dTyr(βR-OMe)][Pip(4S-Cl)]; ester 5-C) was tested. Which pIC50 did it give?
A: 6.91
